Assay results published in ChEMBL document CHEMBL1201862, “PubChem BioAssay data set” (2004).
Active and inactive are the calls of the source.

Columns and labels:
[1] = Luminescence Cell-Based Dose Response HTS to Identify Inhibitors of Luciferase Translation or Activity in H4-C Neuroglioblastoma Cells. [Related pubchem assays: 1813 (Primary HTS), 1827 (Project Summary)]; assay type: functional
[2] = cytotoxicity in HEK-293T cells, dose response, cytotoxicity control for TCR NF-kB inhibitor project, luminescence, T-cell screen hits (AID 489026); assay type: functional, cell-based;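 note: cells exposed to compound about 14 hours before the viability readout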
[3] = Luminescence Cell-Based Dose Response HTS to Identify Activators of Luciferase Translation or Activity in H4-C Neuroglioblastoma Cells. [Related pubchem assays: 1829 (Project Summary), 1814 (Primary HTS)]; assay type: functional
[4] = Luminescence Cell-Based Dose Retest to Confirm Activators of 5'UTR Stem-Loop Driven Alpha-Synuclein mRNA Translation in H4 Neuroglioblastoma Cells. [Related pubchem assays (depositor defined):AID1813, AID1829]; assay type: functional
[5] = Luminescence Cell-Based Dose Response HTS to Identify Activators of 5'UTR Stem-Loop Driven Prion Protein mRNA Translation in H4-C Neuroglioblastoma Cells. [Related pubchem assays: 1829 (Project Summary), 1814 (Primary HTS)]; assay type: functional
[6] = Luminescence Cell-Based Dose HTS Response to Identify Inhibitors of 5'UTR Stem-Loop Driven Prion Protein mRNA Translation in H4-C Neuroglioblastoma Cells. [Related pubchem assays (depositor defined):AID1814, AID1827]; assay type: functional
[7] = Luminescence Cell-Based Dose Confirmation HTS to Identify Inhibitors of 5'UTR Stem-Loop Driven Alpha-Synuclein mRNA Translation in H4 Neuroglioblastoma Cells. [Related pubchem assays: 1827 (Project Summary), 1813 (Primary HTS)]; assay type: functional
[8] = inhibitors of SNCA 5'UTR-driven reporter translation, confirmation, H4 neuroglioma cells, luminescence (AID 1988); assay type: functional, cell-based
[9] = inhibitors of firefly luciferase expression or activity, dose response, H4 neuroglioma cells, luminescence (AID 1990); assay type: functional, cell-based
[10] = molecular target: T1, Runt-related transcription factor 1/Core-binding factor subunit beta (Homo sapiens, UniProt Q01196+Q13951); assay: inhibitors of RUNX1 Runt–CBFb-SMMHC binding, primary screen, biochemical, FRET, Cerulean-Runt, Venus-CBFb-SMMHC, uHTS (AID 1434); assay type: protein assay;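 note: partner is the CBFb-SMMHC leukemia fusion protein rather than wild-type CBFb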
T1 sequence (Q01196 whole entry, the tested form may be a part): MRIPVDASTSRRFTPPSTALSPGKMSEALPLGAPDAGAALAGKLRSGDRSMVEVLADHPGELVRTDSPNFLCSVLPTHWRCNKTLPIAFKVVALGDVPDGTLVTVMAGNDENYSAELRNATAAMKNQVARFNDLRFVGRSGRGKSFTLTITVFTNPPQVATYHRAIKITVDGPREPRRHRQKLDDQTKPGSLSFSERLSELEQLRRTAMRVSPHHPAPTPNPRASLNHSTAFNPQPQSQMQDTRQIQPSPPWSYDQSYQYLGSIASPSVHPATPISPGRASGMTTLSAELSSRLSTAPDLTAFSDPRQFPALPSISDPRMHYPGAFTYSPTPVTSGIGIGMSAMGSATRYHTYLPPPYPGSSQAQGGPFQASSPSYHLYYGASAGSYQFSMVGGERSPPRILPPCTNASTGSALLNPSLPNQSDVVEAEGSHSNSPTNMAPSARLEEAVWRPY
T1 sequence (Q13951 whole entry, the tested form may be a part): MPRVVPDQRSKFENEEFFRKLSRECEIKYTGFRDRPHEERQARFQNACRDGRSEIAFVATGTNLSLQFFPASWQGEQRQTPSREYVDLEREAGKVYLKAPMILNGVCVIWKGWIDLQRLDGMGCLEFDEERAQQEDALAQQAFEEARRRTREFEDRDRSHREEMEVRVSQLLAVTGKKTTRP

[11] = molecular target: T1, Runt-related transcription factor 1/Core-binding factor subunit beta; assay: inhibitors of RUNX1 Runt–CBFb-SMMHC binding, biochemical, TR-FRET (AID 1438); assay type: protein assay
[12] = molecular target: T2, Intestinal-type alkaline phosphatase (Homo sapiens, UniProt P09923); assay: human intestinal alkaline phosphatase activators, dose response, biochemical, luminescence, uHTS hits (AID 463120); assay type: functional
T2 sequence (P09923 whole entry): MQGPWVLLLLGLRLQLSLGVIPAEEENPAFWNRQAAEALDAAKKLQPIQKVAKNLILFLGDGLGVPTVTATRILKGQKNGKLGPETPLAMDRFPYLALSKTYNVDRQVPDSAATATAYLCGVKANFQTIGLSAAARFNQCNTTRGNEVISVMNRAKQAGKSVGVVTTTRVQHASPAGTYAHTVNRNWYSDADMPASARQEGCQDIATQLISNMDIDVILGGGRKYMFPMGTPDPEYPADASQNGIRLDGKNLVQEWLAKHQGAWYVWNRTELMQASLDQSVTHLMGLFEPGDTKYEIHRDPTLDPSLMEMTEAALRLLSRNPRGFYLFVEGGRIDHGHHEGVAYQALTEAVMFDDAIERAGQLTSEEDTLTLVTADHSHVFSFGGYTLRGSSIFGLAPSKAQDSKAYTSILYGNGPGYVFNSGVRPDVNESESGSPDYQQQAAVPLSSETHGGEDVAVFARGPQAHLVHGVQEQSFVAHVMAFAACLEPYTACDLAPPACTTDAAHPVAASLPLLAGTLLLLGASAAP

[13] = molecular target: T2, Intestinal-type alkaline phosphatase; assay: human IAP activators, dose response, biochemical, luminescent, uHTS hits, set 2 (AID 488817); assay type: functional;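 note: potency of activators that raise enzyme activity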
[14] = molecular target: Intestinal-type alkaline phosphatase (Mus musculus, UniProt P24822); assay: PubChem AID 488875; assay type: functional
Sequence of Intestinal-type alkaline phosphatase (Mus musculus, UniProt P24822) (P24822 whole entry): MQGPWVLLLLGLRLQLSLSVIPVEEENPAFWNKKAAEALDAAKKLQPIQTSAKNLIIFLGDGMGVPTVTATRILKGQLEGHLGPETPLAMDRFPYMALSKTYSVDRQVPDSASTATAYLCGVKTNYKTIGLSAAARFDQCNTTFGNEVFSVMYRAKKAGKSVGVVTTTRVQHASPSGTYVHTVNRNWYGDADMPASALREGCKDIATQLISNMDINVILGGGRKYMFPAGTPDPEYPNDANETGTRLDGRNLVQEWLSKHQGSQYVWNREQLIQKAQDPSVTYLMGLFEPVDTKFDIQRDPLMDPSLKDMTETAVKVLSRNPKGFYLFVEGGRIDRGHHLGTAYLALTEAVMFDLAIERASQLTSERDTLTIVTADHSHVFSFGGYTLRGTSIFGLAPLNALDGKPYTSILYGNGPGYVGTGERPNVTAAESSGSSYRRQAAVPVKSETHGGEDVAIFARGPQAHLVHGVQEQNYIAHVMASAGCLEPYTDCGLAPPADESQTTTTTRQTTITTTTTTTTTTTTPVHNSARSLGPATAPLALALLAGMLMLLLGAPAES

[15] = molecular target: Alkaline phosphatase, placental type (Homo sapiens, UniProt P05187); assay: PLAP enzyme inhibitors, confirmation, biochemical, luminescence (AID 1512); assay type: functional
Sequence of Alkaline phosphatase, placental type (P05187 whole entry): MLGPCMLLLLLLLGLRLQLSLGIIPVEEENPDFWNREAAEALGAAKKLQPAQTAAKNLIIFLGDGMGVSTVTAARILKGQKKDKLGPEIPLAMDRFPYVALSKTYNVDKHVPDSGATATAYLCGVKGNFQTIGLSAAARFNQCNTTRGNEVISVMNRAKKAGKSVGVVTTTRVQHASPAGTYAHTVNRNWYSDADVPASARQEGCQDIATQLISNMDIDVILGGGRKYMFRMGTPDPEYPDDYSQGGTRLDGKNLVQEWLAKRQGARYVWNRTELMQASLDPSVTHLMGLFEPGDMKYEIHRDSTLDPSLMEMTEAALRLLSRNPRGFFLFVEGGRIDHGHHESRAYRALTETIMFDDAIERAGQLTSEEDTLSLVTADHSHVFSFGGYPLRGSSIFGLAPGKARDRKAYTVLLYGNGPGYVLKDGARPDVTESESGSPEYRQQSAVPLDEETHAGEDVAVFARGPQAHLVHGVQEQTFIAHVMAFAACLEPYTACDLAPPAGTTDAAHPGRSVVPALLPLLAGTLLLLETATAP

[16] = molecular target: T3, Delta-type opioid receptor (Homo sapiens, UniProt P41143); assay: HTS Image-Based Screen for Agonists of the DOR Receptor. [Related pubchem assays (depositor defined):AID1777, AID1786, AID2133]; assay type: functional
T3 sequence (P41143 whole entry): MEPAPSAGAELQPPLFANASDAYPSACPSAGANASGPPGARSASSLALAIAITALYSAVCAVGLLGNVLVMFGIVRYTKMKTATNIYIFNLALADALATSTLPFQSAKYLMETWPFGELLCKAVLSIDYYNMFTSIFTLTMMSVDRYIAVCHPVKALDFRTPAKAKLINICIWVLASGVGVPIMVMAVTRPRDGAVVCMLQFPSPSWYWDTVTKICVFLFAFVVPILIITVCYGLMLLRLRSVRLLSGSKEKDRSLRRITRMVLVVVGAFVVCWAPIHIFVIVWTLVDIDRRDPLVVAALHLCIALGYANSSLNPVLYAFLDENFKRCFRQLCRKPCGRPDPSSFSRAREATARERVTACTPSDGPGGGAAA

Beta-galactosidase = Beta-galactosidase (Escherichia coli, UniProt Q8VNN2); assay type: functional
[17] = molecular target: Voltage-gated inwardly rectifying potassium channel KCNH2 (Homo sapiens, UniProt Q12809); assay: hERG protection from proarrhythmic block, potency, dose response, cell-based, thallium flux (AID 2121); assay type: ADME
Sequence of Voltage-gated inwardly rectifying potassium channel KCNH2 (Q12809 whole entry): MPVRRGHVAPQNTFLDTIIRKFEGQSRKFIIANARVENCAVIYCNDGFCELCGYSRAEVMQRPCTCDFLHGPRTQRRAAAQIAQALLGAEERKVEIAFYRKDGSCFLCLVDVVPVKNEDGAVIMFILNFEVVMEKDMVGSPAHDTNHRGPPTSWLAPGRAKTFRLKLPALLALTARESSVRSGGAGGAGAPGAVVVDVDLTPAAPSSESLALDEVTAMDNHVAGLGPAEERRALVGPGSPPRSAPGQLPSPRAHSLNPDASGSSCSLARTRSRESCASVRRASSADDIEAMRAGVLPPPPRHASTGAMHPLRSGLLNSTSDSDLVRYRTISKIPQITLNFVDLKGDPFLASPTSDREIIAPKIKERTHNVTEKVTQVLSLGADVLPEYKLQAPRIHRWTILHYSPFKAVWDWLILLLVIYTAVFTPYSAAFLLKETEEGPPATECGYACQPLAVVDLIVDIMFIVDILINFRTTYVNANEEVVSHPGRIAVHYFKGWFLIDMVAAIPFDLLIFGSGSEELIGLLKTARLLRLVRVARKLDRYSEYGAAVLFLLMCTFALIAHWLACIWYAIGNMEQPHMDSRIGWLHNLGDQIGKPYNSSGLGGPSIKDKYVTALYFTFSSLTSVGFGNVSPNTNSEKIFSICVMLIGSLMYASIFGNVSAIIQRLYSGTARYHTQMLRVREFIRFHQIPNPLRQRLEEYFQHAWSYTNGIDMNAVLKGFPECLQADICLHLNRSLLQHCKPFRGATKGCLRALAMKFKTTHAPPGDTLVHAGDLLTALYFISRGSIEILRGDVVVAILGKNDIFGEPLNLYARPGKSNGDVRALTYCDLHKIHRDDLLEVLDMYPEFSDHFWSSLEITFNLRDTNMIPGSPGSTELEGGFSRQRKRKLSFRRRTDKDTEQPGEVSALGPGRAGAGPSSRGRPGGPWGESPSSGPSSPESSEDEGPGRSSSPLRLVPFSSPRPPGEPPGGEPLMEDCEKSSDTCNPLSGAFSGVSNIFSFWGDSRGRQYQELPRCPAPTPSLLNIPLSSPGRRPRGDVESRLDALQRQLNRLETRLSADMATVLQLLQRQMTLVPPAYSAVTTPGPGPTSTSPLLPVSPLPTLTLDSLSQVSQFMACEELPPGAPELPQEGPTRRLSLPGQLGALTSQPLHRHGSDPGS

[18] = molecular target: T3, Delta-type opioid receptor; assay: HTS Image-Based Screen for Antagonists of the DOR Receptor. [Related pubchem assays (depositor defined):AID1777, AID1785, AID1786, AID2133]; assay type: functional
Streptococcus = assay: Group A Streptococcus viability loss, dose response, counter-screen for streptokinase expression inhibitor project, luminescence, BacTiterGlo (AID 1915); assay type: functional, organism-based;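 note: potency for reduction of bacterial viability or growth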
[19] = inhibitors of intracellular T. cruzi replication, confirmation, NIH3T3 host cells, beta-gal luminescence (AID 2044); assay type: functional, cell-based;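 note: intracellular parasites grown in NIH/3T3 mouse fibroblasts as host cells; luminescent beta-galactosidase reporter signal from transgenic T. cruzi replicating inside host cells; inhibitors lower the luminescence signal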
[20] = molecular target: T4, Kappa-type opioid receptor (Homo sapiens, UniProt P41145); assay type: functional
T4 sequence (P41145 whole entry): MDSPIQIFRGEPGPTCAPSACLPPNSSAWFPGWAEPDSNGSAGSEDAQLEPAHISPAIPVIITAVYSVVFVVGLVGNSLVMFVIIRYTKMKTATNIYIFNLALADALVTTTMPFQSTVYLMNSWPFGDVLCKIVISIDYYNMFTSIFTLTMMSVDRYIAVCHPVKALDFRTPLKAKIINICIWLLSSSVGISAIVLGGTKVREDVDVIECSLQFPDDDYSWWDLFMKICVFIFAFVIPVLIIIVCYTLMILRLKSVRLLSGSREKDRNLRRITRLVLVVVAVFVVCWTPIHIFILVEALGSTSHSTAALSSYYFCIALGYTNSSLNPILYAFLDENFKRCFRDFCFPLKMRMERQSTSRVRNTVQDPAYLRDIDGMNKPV

[21] = molecular target: T4, Kappa-type opioid receptor; assay type: functional; remark: listed apart in the source
[22] = system: Streptococcus sp. 'group A'; assay: growth inhibition of control SK(-) GAS strain, dose response, counter-screen for streptokinase expression inhibitor project, luminescence, kanamycin, BacTiterGlo, confirmation (AID 1900); assay type: functional, organism-based
Mu-type opioid receptor = Mu-type opioid receptor (Homo sapiens, UniProt P35372); assay: HTS Image-Based Screen for Agonists of the MOR Receptor. [Related pubchem assays (depositor defined):AID1777, AID1785, AID1786, AID2133]; assay type: functional;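 note: imaging of beta-arrestin GFP recruitment into spots after receptor activation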
Sequence of Mu-type opioid receptor (P35372 whole entry): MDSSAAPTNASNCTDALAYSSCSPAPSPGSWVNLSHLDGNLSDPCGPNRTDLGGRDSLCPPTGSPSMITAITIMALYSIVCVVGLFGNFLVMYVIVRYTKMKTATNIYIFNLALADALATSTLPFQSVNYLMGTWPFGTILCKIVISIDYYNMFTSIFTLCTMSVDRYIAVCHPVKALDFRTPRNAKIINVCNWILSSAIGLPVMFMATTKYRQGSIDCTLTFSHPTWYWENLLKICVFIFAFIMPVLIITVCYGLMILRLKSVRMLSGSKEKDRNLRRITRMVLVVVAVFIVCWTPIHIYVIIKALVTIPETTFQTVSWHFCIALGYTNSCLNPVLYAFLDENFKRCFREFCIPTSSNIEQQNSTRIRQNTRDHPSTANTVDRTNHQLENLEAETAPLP

With COc1ccc(/C=C/C(=O)c2cc(F)ccc2OC(=O)c2ccccc2)cc1OC the EC50 [1] was 0.697 µM (active), the IC50 [2] was > 80 µM (inactive) and the EC50 [3] was 0.697 µM (inconclusive). The EC50 [4] was 0.666 µM (inconclusive), the EC50 [5] was 0.699 µM (inconclusive) and the EC50 [6] was 0.699 µM (active). For the same compound, the EC50 [7] was 0.666 µM (active), the EC50 [8] was < 0.195 µM (active) and the EC50 [9] was 12.8 µM (active).

With Cc1cc2n(n1)C(c1ccc(N(C)C)cc1)Nc1ccccc1-2 (stereo not given) the IC50 [10] was 48.3 µM (active) and the IC50 [11] was > 100 µM (inactive).

For Cc1cc(C)cc(OCC(=O)NNC(=O)c2cc(C)n[nH]2)c1, the EC50 [12] was 12.7 µM (active), the EC50 [13] was 16.1 µM (active) and the EC50 [14] was > 100 µM (inactive). The IC50 [15] was > 100 µM (inactive).

For COc1ccc(/C=C2\SC(=N)N(c3nccs3)C2=O)cc1OC, the EC50 [16] was > 32 µM (inactive), the EC50 (Beta-galactosidase) was > 31.5 µM (inactive) and the EC50 [17] was 84.7 µM (active). The IC50 [18] was > 32 µM (inactive), the EC50 (Streptococcus) was 3.61 µM (active) and the EC50 [19] was 3.66 µM (active). The IC50 [20] was over 32 µM, the IC50 [21] was 7.22 µM (active) and the EC50 [22] was 1.69 µM (active). The EC50 (Mu-type opioid receptor) was > 32 µM (inactive).
